Consider two molecules from US6410525B1, “Carbapenem derivatives, utilization thereof and intermediate compounds of the same” (Kyoto Pharmaceutical Industries, Ltd., priority 1998, dated 2002).

The nature of this data set: Oral absorption test: concentration of hydrolyzed carbapenem compound (A) in plasma after oral administration. It counts as in vivo. The following applies: mice, 100 mg/kg orally, hydrolyzed carbapenem compound (A) by HPLC. The method, then: The compound of the present invention (100 mg/kg, compound of Example 13) was orally administered to mice (3 per group) and the concentration of hydrolyzed carbapenem compound (A) in plasma was determined at 0.25, 0.5, 1.0, 2.0 and 3.0 hours later by HPLC.
The compound of the present invention (100 mg/kg, compound of Example 15) was orally administered to mice (3 per group) and the concentration of hydrolyzed carbapenem compound (A) in plasma was determined at 0.25, 0.5, 1.0, 2.0 and 3.0 hours later by HPLC.

For the molecule `CCC(=O)OCOC(=O)N1C[C@@H](SC2=C(C(=O)OCOC(=O)C(C)(C)C)N3C(=O)[C@H]([C@@H](C)O)[C@H]3[C@H]2C)C[C@H]1C(=O)N(C)C` [Example 13], the “Average concentration in plasma” value by setting is: (0.25 hr) 9.5 µg/mL; (0.5 hr) 4.8 µg/mL; (1.0 hr) 1.9 µg/mL; (2.0 hr) 0.6 µg/mL; (3.0 hr) 0.2 µg/mL.

In the case of `CC(C)C(=O)OCOC(=O)N1C[C@@H](SC2=C(C(=O)OCOC(=O)C(C)(C)C)N3C(=O)[C@H]([C@@H](C)O)[C@H]3[C@H]2C)C[C@H]1C(=O)N(C)C` [Example 15, pivaloyloxymethyl (1R,5S,6S)-2-[(3S,5S)-(5-N,N-dimethylaminocarbonyl-1-isobutyryloxymethyloxycarbonyl)pyrrolidin-3-ylthio]-6-[(1R)-1-hydroxyethyl]-1-methylcarbapen-2-em-3-carboxylate], the “Average concentration in plasma” value runs as follows: (0.25 hr) 8.6 µg/mL; (0.5 hr) 10.1 µg/mL; (1.0 hr) 4.8 µg/mL; (2.0 hr) 1.4 µg/mL; (3.0 hr) 0.3 µg/mL.
